According to the supplement of paper PMC10307832:

Columns and labels:
Test in all cases: relative viability (nuclei count vs DMSO), 5 days (fraction); higher = more cells survive
Palbociclib + Pictilisib = compound: CC(=O)c1c(C)c2cnc(Nc3ccc(N4CCNCC4)cn3)nc2n(C2CCCC2)c1=O [Palbociclib] + CS(=O)(=O)N1CCN(Cc2cc3nc(-c4cccc5[nH]ncc45)nc(N4CCOCC4)c3s2)CC1 [Pictilisib] (partner 1 µM)
Procedure, shortened: (§1)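 Relative viability equals treated-well nuclei counts divided by vehicle-well nuclei counts. Counts came from 4× images of lung cancer cell lines grown in 1536-well plates for 5 days after pin-tool dosing on the day after seeding. Dosing used one drug alone or a fixed anchor-drug dose plus five library-drug doses (not always all listed) in √10 steps, and values are medians of duplicate plates.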

Palbociclib + Crizotinib = compound: CC(=O)c1c(C)c2cnc(Nc3ccc(N4CCNCC4)cn3)nc2n(C2CCCC2)c1=O [Palbociclib] + C[C@@H](Oc1cc(-c2cnn(C3CCNCC3)c2)cnc1N)c1c(Cl)ccc(F)c1Cl [Crizotinib] (partner 1 µM)
Procedure, shortened: as §1

Palbociclib + Alpelisib = compound: CC(=O)c1c(C)c2cnc(Nc3ccc(N4CCNCC4)cn3)nc2n(C2CCCC2)c1=O [Palbociclib] + Cc1nc(NC(=O)N2CCC[C@H]2C(N)=O)sc1-c1ccnc(C(C)(C)C(F)(F)F)c1 [Alpelisib] (partner 2 µM)
Procedure, shortened: as §1

Palbociclib + Bortezomib = compound: CC(=O)c1c(C)c2cnc(Nc3ccc(N4CCNCC4)cn3)nc2n(C2CCCC2)c1=O [Palbociclib] + CC(C)C[C@H](NC(=O)[C@H](Cc1ccccc1)NC(=O)c1cnccn1)B(O)O [Bortezomib] (partner 0.002 µM)
Procedure, shortened: as §1

Cell Line | relative viability (Palbociclib + Pictilisib; first compound 0.01 µM) | relative viability (Palbociclib + Pictilisib; first compound 0.03162 µM) | relative viability (Palbociclib + Pictilisib; first compound 0.1 µM) | relative viability (Palbociclib + Pictilisib; first compound 0.3162 µM) | relative viability (Palbociclib + Pictilisib; first compound 1 µM) | relative viability (Palbociclib + Crizotinib; first compound 0.01 µM) | relative viability (Palbociclib + Crizotinib; first compound 0.03162 µM) | relative viability (Palbociclib + Crizotinib; first compound 0.1 µM) | relative viability (Palbociclib + Crizotinib; first compound 0.3162 µM) | relative viability (Palbociclib + Crizotinib; first compound 1 µM) | relative viability (Palbociclib + Alpelisib; first compound 0.01 µM) | relative viability (Palbociclib + Alpelisib; first compound 0.03162 µM) | relative viability (Palbociclib + Alpelisib; first compound 0.1 µM) | relative viability (Palbociclib + Alpelisib; first compound 0.3162 µM) | relative viability (Palbociclib + Alpelisib; first compound 1 µM) | relative viability (Palbociclib + Bortezomib; first compound 0.01 µM) | relative viability (Palbociclib + Bortezomib; first compound 0.03162 µM) | relative viability (Palbociclib + Bortezomib; first compound 0.1 µM) | relative viability (Palbociclib + Bortezomib; first compound 0.3162 µM) | relative viability (Palbociclib + Bortezomib; first compound 1 µM)
201T | 0.68 | 0.61 | 0.622 | 0.525 | 0.464 | 1.01 | 0.992 | 0.922 | 0.93 | 0.806 | 0.995 | 1.04 | 0.884 | 0.974 | 0.728 | 1.16 | 0.954 | 1.04 | 0.946 | 0.709
A549 | 0.472 | 0.318 | 0.293 | 0.283 | 0.203 | 0.776 | 0.65 | 0.472 | 0.362 | 0.29 | 0.741 | 0.651 | 0.486 | 0.356 | 0.254 | – | – | – | – | –
A-427 | 0.703 | 0.648 | 0.592 | 0.447 | 0.347 | 0.963 | 0.83 | 0.668 | 0.728 | 0.614 | 1.08 | 0.951 | 0.929 | 0.893 | 0.816 | 0.933 | 0.877 | 0.827 | 0.832 | 0.546
ABC-1 | 0.756 | 0.758 | 0.532 | 0.516 | 0.423 | 0.935 | 1.16 | 0.93 | 0.832 | 0.591 | 1.28 | 0.91 | 0.785 | 0.751 | 0.412 | 0.323 | 0.32 | 0.232 | 0.292 | 0.394
BEN | 0.612 | 0.425 | 0.402 | 0.411 | 0.3 | 0.831 | 0.701 | 0.719 | 0.722 | 0.475 | 1.04 | 0.847 | 0.634 | 0.834 | 0.499 | 0.94 | 0.728 | 0.849 | 0.674 | 0.353
CAL-12T | 0.471 | – | – | 0.263 | 0.281 | 0.598 | 0.464 | 0.466 | 0.511 | 0.374 | 1.11 | 1.05 | 0.84 | 0.652 | 0.603 | 1.04 | – | – | 0.674 | 0.405
COR-L23 | 0.772 | 0.655 | 0.503 | 0.463 | 0.328 | 0.707 | 0.551 | 0.427 | 0.32 | 0.287 | 0.671 | 0.535 | 0.516 | 0.37 | 0.311 | 0.952 | 0.795 | 0.831 | 0.721 | 0.344
COR-L 105 | 0.384 | 0.337 | 0.261 | 0.319 | 0.367 | 0.726 | 0.555 | 0.451 | 0.447 | 0.276 | 0.916 | 0.888 | 0.792 | 0.7 | 0.444 | 0.759 | 0.435 | 0.486 | 0.504 | 0.363
Calu-6 | 0.908 | 0.779 | 0.698 | 0.508 | 0.371 | 0.867 | 0.68 | 0.662 | 0.551 | 0.451 | 0.817 | 0.864 | 0.751 | 0.695 | 0.465 | 0.926 | 0.95 | 0.727 | 0.89 | 0.412
ChaGo-K-1 | 0.836 | 0.51 | 0.753 | 0.955 | 1.12 | 0.961 | 0.639 | 1.07 | 1.12 | 1.13 | – | – | – | – | – | 1.11 | 0.828 | 1.02 | 1.14 | 1.11
LK-2 | 0.574 | – | 0.365 | 0.529 | 0.501 | 0.247 | – | 0.23 | 0.227 | 0.246 | 1.12 | – | 0.75 | 1.15 | 1.3 | – | – | – | – | –
NCI-H358 | 0.277 | 0.189 | 0.185 | 0.213 | 0.155 | 0.453 | 0.479 | 0.335 | 0.332 | 0.187 | 0.777 | 0.709 | 0.395 | 0.312 | 0.257 | – | – | – | – | –
NCI-H1395 | 0.616 | 0.542 | 0.507 | 0.494 | 0.425 | – | – | – | – | – | 1.05 | 0.835 | 0.79 | 0.875 | 0.686 | – | – | – | – | –
NCI-H1650 | 0.548 | 0.223 | 0.383 | 0.414 | 0.312 | 0.957 | 0.724 | 0.776 | 0.684 | 0.548 | – | – | – | – | – | 0.229 | 0.227 | 0.176 | 0.187 | 0.215
NCI-H1793 | 0.241 | 0.351 | 0.285 | 0.224 | 0.219 | – | – | – | – | – | 0.749 | 0.73 | 0.687 | 0.487 | 0.547 | – | – | – | – | –
NCI-H1944 | 0.317 | 0.332 | 0.334 | 0.265 | 0.228 | 1.01 | 0.969 | 0.904 | 0.98 | 0.851 | 0.859 | 0.723 | 0.648 | 0.758 | 0.525 | – | – | – | – | –
NCI-H2170 | 0.346 | 0.252 | 0.253 | 0.239 | 0.206 | 1.23 | 1.07 | 1.11 | 1.13 | 0.785 | 0.797 | 0.767 | 0.776 | 0.715 | 0.601 | – | – | – | – | –
SK-MES-1 | 0.359 | 0.305 | 0.238 | 0.266 | 0.196 | 0.943 | 0.952 | 0.724 | 0.714 | 0.45 | 0.841 | 0.815 | 0.507 | 0.56 | 0.356 | – | – | – | – | –
